Columns and labels:
[1] = tested on: aortic rings; test: Vasodilation of phenylephrine-contracted rat thoracic aortic rings (organ chamber, isometric tension); design: species or system Sprague-Dawley(SD) rats; conditions: for effect to the blood vessel without endothelium / relaxation to the blood vessel with endothelium: aortic rings contracted by 10^-6M phenylephrine; for effect to the blood vessel without endothelium: endothelium removed mechanically; for relaxation to the blood vessel with endothelium: substance alone; for relaxation to the blood vessel with endothelium / vasodilation in the presence of methylene blue(MB) / vasodilation in the presence of nitro-L-arginine(NLA): with endothelium; for vasodilation in the presence of methylene blue(MB): together with 10^-6M methylene blue(MB), an inhibitor of soluble guanylate cyclase; for vasodilation in the presence of nitro-L-arginine(NLA): together with 10^-6M nitro-L-arginine(NLA), an inhibitor of nitric oxide synthase
Protocol: Sprague-Dawley(SD) rats weighing 300-400g were sacrificed and their thoracic aortae were removed quickly, and then placed in a Krebs-Ringer-sodium bicarbonate solution (control solution, NaCl 118.3; KCl 4.7; MgSO4 1.2; KH2PO4 1.2; CaCl2 2.5; NaHCO3 25.0; CaEDTA 0.016 and glucose 11.1mM). Blood within the aortae, adipose and connective tissues surrounding the blood vessel were removed and then the clean aortae were cut down to prepare the aortic rings having 2-3mm length. The aortic rings were suspended vertically in an organ chamber filled with 25ml of control solution (pH 7.4). In some aortic rings, the endothelium was removed mechanically by rolling the rings 7 to 8 times on a tissue towel with pincette. The bottom of aortic ring was fixed to the organ chamber and the top thereof was connected to a transducer coupler through stirrups for recording of isometric tension.
To the aortic rings showing a stable contraction induced by addition of 10^-6M phenylephrine to the organ chamber was added ginsenoside Rg3 or Rg5-dimethylsulfoxide solution alone or together with 10^-6M methylene blue(MB) or 10^-6M nitro-L-arginine(NLA) in order to observe the vasodilation thereof. The degree of contraction by 10^-6M phenylephrine was set to 100% and the degree of relaxation caused by ginsenoside Rg3 or Rg5 was represented as percent(%) with respect thereto.
Vasodilation of the processed panaxadiol saponin fraction obtained in Example 7 as mentioned above was determined according to the same experimental procedure as Test Example 1.

[2] = tested on: Human umbilical vein endothelium cells(HUVEC); test: Cytotoxicity to HUVEC cells (MTT, 48 hours); assay type: cell-based; conditions: for cytotoxicity: compared with solvent alone (Rg3: dimethylsulfoxide; Rg5: distilled water)
Protocol: Human umbilical vein endothelium cells(HUVEC) cultured in M199 medium were suspended in physiological saline to a concentration of 20000 cells/180µl. The cell suspension was introduced into each well of 96-well plate in an amount of 180µl, and then 20µl of dimethylsulfoxide as a solvent or the same volume of Rg3 dissolved in dimethylsulfoxide was added thereto. The plate was incubated for 48 hours in a cell-incubator of 37°C while keeping 5% CO2. Then, 50µl of MTT(3-(4,5-dimethyl-thiazol-2'-yl)-2,5-diphenyltetrazolium bromide) dissolved in phosphate buffered solution in a concentration of 2mg/ml was added thereto and incubated again for 4 hours under the same condition as mentioned above. Thereafter, the supernatant was removed and 200µl of dimethylsulfoxide was added to measure the absorbance at 540nm. The absorbance measured was converted into cell number to determine IC50 of dimethylsulfoxide solvent and Rg3 which is the concentration to inhibit the cell growth by 50% and can be used as an index of cytotoxicity.
Human umbilical vein endothelium cells(HUVEC) cultured in M199 medium were suspended in physiological saline to a concentration of 20000 cells/180µl. The cell suspension was introduced into each well of 96-well plate in an amount of 180µl, and then 20µl of distilled water as a solvent or the same volume of Rg5 dissolved in distilled water was added thereto. The plate was incubated for 48 hours in a cell-incubator of 37°C while keeping 5% CO2. Then, 50µl of MTT(3-(4,5-dimethyl-thiazol-2'-yl)-2,5-diphenyltetrazolium bromide) dissolved in phosphate buffered solution in a concentration of 2mg/ml was added thereto and incubated again for 4 hours under the same condition as mentioned above. Thereafter, the supernatant was removed and 200µl of dimethylsulfoxide was added to measure the absorbance at 540nm.

| Molecule | effect to the blood vessel without endothelium [1] | relaxation to the blood vessel with endothelium [1] | vasodilation in the presence of methylene blue(MB) [1] | vasodilation in the presence of nitro-L-arginine(NLA) [1] | cytotoxicity [2] | IC50 (concentration to inhibit the cell growth by 50%) ([2]; dissolved in dimethylsulfoxide) |
| --- | --- | --- | --- | --- | --- | --- |
| CC(C)=CC/C=C(\C)[C@H]1CC[C@]2(C)[C@@H]1[C@H](O)C[C@@H]1[C@@]3(C)CC[C@H](O[C@@H]4O[C@H](CO)[C@@H](O)[C@H](O)[C@H]4O[C@@H]4O[C@H](CO)[C@@H](O)[C@H](O)[C@H]4O)C(C)(C)[C@@H]3CC[C@]12C [ginsenoside Rg5] | no effect | concentration-dependent relaxation | significantly inhibited | significantly inhibited | no cytotoxicity | – |
| ginsenoside Rg3 | no effect | concentration-dependent relaxation | significantly inhibited | significantly inhibited | lower cytotoxicity than the solvent | 26.7 µg/mL |

Reference: patent EP0873131B1, “PROCESSES FOR PREPARATION OF RG3 AND RG5 GINSENOSIDES” (Cheil Je Dang Co., priority 1995, dated 1997)
